According to PubChem BioAssay AID2060489 (Molecular Pharmacology Branch, DTP, NCI, 2025):

Tested on: 922993-354-T-J3-PDC complex spheroids, viability
Test: Anticancer human tumor 922993-354-T-J3-PDC patient-derived endometrial carcinoma cell line growth inhibition [GQUAD]
Settings: for IC50: curve of first compound; for viability, T/C: stronger effect = lower value
How it was run: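 Multi-cell-type spheroids of tumor cells with HUVEC and mesenchymal stem cells, treated with drug combinations. Concentrations descend in half-log steps from near clinical Cmax, or from 10 microM where Cmax is unknown; viability read-out.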

[1] = second compound 0.0316 µM, first compound 0.0316 µM
[2] = second compound 0.0316 µM, first compound 0.1 µM
[3] = second compound 0.0316 µM, first compound 0.316 µM
[4] = second compound 0.0316 µM, first compound 1 µM
[5] = second compound 0.0316 µM, first compound 3.16 µM
[6] = second compound 0.0316 µM, first compound 10 µM
[7] = second compound 0.1 µM, first compound 0.0316 µM
[8] = second compound 0.1 µM, first compound 0.1 µM
[9] = second compound 0.1 µM, first compound 0.316 µM
[10] = second compound 0.1 µM, first compound 1 µM
[11] = second compound 0.1 µM, first compound 3.16 µM
[12] = second compound 0.1 µM, first compound 10 µM
[13] = second compound 0.316 µM, first compound 0.0316 µM
[14] = second compound 0.316 µM, first compound 0.1 µM
[15] = second compound 0.316 µM, first compound 0.316 µM
[16] = second compound 0.316 µM, first compound 1 µM
[17] = second compound 0.316 µM, first compound 3.16 µM
[18] = second compound 0.316 µM, first compound 10 µM
[19] = second compound 1 µM, first compound 0.0316 µM
[20] = second compound 1 µM, first compound 0.1 µM
[21] = second compound 1 µM, first compound 0.316 µM
[22] = second compound 1 µM, first compound 1 µM
[23] = second compound 1 µM, first compound 3.16 µM
[24] = second compound 1 µM, first compound 10 µM
[25] = second compound 3.16 µM, first compound 0.0316 µM
[26] = second compound 3.16 µM, first compound 0.1 µM
[27] = second compound 3.16 µM, first compound 0.316 µM
[28] = second compound 3.16 µM, first compound 1 µM
[29] = second compound 3.16 µM, first compound 3.16 µM
[30] = second compound 3.16 µM, first compound 10 µM
[31] = second compound 10 µM, first compound 0.0316 µM
[32] = second compound 10 µM, first compound 0.1 µM
[33] = second compound 10 µM, first compound 0.316 µM
[34] = second compound 10 µM, first compound 1 µM
[35] = second compound 10 µM, first compound 3.16 µM
[36] = second compound 10 µM, first compound 10 µM
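Further: spheroids exposed to compounds for seven days.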
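Wherever viability, T/C is given: 100% = DMSO vehicle control viability.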

Work on CC1COCCN1c1cc(C2(O)CC3CCC(C2)O3)c2cnn(-c3ccn[nH]3)c2n1 (centres undefined) + CN(C)c1ccc(Nc2c3ccc(NC(=O)CCN4CCCC4)cc3nc3cc(NC(=O)CCN4CCCC4)ccc23)cc1 yielded an IC50 (second compound 0.0316 µM) of 456 nM, an IC50 (second compound 0.1 µM) of 545 nM and an IC50 (second compound 0.316 µM) of 483 nM. It also gave an IC50 (second compound 1 µM) of 784 nM, an IC50 (second compound 3.16 µM) of 520 nM and an IC50 (second compound 10 µM) of 906 nM. It also gave a viability, T/C [1] of 124%, a viability, T/C [2] of 78.8% and a viability, T/C [3] of 67%. It also gave a viability, T/C [4] of 29.4%, a viability, T/C [5] of 23.3% and a viability, T/C [6] of 18.4%. The viability, T/C [7] was 82.8%, the viability, T/C [8] was 82.2% and the viability, T/C [9] was 68.2%. For the same molecule, the viability, T/C [10] was 29.8%, the viability, T/C [11] was 21.3% and the viability, T/C [12] was 22%. It also gave a viability, T/C [13] of 112%, a viability, T/C [14] of 86.1% and a viability, T/C [15] of 66.4%. It also gave a viability, T/C [16] of 27.3%, a viability, T/C [17] of 22.1% and a viability, T/C [18] of 19.7%. It also gave a viability, T/C [19] of 98.6%, a viability, T/C [20] of 102% and a viability, T/C [21] of 70.5%. The viability, T/C [22] was 47.3%, the viability, T/C [23] was 20.2% and the viability, T/C [24] was 19.7%. It also gave a viability, T/C [25] of 127%, a viability, T/C [26] of 79.7% and a viability, T/C [27] of 65.5%. The viability, T/C [28] was 39.4%, the viability, T/C [29] was 21.5% and the viability, T/C [30] was 25.4%. The viability, T/C [31] was 115%, the viability, T/C [32] was 113% and the viability, T/C [33] was 86.4%. The viability, T/C [34] was 48.8%, the viability, T/C [35] was 21.7% and the viability, T/C [36] was 25.2%.
O=C(c1cc(Cc2n[nH]c(=O)c3ccccc23)ccc1F)N1CCN(C(=O)C2CC2)CC1 + CN(C)c1ccc(Nc2c3ccc(NC(=O)CCN4CCCC4)cc3nc3cc(NC(=O)CCN4CCCC4)ccc23)cc1 showed an IC50 (second compound 0.0316 µM) greater than 10000 nM, an IC50 (second compound 0.1 µM) greater than 10000 nM and an IC50 (second compound 0.316 µM) greater than 10000 nM. It also gave an IC50 (second compound 1 µM) greater than 10000 nM, an IC50 (second compound 3.16 µM) greater than 10000 nM and an IC50 (second compound 10 µM) greater than 10000 nM. It also gave a viability, T/C [1] of 103%, a viability, T/C [2] of 105% and a viability, T/C [3] of 94.2%. It also gave a viability, T/C [4] of 86.5%, a viability, T/C [5] of 89.8% and a viability, T/C [6] of 106%. It also gave a viability, T/C [7] of 115%, a viability, T/C [8] of 81.9% and a viability, T/C [9] of 91.9%. The viability, T/C [10] was 86%, the viability, T/C [11] was 94.9% and the viability, T/C [12] was 106%. It also gave a viability, T/C [13] of 89.5%, a viability, T/C [14] of 84.3% and a viability, T/C [15] of 115%. The viability, T/C [16] was 87.3%, the viability, T/C [17] was 91.2% and the viability, T/C [18] was 78.5%. The viability, T/C [19] was 83.7%, the viability, T/C [20] was 86.5% and the viability, T/C [21] was 87.8%. It also gave a viability, T/C [22] of 74.7%, a viability, T/C [23] of 97.5% and a viability, T/C [24] of 107%. For the same molecule, the viability, T/C [25] was 84.2%, the viability, T/C [26] was 105% and the viability, T/C [27] was 110%. It also gave a viability, T/C [28] of 75.5%, a viability, T/C [29] of 120% and a viability, T/C [30] of 93.7%. The viability, T/C [31] was 110%, the viability, T/C [32] was 128% and the viability, T/C [33] was 109%. The viability, T/C [34] was 99.4%, the viability, T/C [35] was 133% and the viability, T/C [36] was 132%.
